# Assay results: patent publication US20200276154A1, “COMPOSITION FOR PROMOTING ADIPOCYTE DIFFERENTIATION OR ADIPONECTIN, COMPRISING TRIMETHOXY PHENYL COMPOUND” (AMOREPACIFIC CORPORATION, priority 2017, published 2020)
# Columns and labels:
# Type in all cases: cell-based, human
# hSCFs = experiment: Quantitative analysis of adipocyte differentiation by Oil Red O (ORO) staining; conditions: 14 days differentiation, compared with KA 400 μM, CA 60 μM, GC 30 μM
# Protocol: Human subcutaneous fat cells (hereinafter, hSCFs) and a subcutaneous preadipocyte differentiation medium were purchased from ZenBio Inc. (NC, USA). The cells were cultured in a humidified 5% CO2 incubator for 7 days.
# To induce differentiation, the hSCFs were cultured further for 14 days in a Dulbecco's modified Eagle's medium (DMEM; Lonza, MD, USA) supplemented with 10% fetal bovine serum (FBS, PAA, Pasching, Austria), 10 μg/mL insulin (Sigma-Aldrich, MO, USA), 0.5 mM 3-isobutyl-1-methylxanthine (IBMX; Sigma-Aldrich, St. Louis, Mo., USA), 1 μM dexamethasone (DEX, Sigma-Aldrich, St. Louis, Mo., USA) and 1 μM troglitazone (Sigma-Aldrich, St. Louis, Mo., USA) while replacing the medium every other day.
# The hSCFs cultured in Example 1 were differentiated for a total of 14 days by treating with a composition containing PAC-2 at various concentrations (μM) or with KA (400 μM), CA (60 μM) or GC (30 μM) as positive control groups. Then, after washing twice with cold PBS (phosphate-buffered saline), the cells were fixed in 3.7% formaldehyde (Sigma-Aldrich, St. Louis, Mo., USA) for 1 hour. The fixed hSCFs were washed with 60% propylene glycol (Sigma-Aldrich, St. Louis, Mo., USA) in PBS and were treated with Oil Red 0 (0.3% Oil Red 0 in 60% propylene glycol; Sigma-Aldrich, St. Louis, Mo., USA) for 30 minutes. The cells were washed with 85% propylene glycol thrice and then rinsed with tap water. […]
# [1] = tested on: secreted adiponectin from hSCFs; experiment: Quantitative analysis of adiponectin production by ELISA; conditions: culture medium, compared with positive control groups KA 400 μM, CA 60 μM, GC 30 μM
# Protocol: The hSCFs cultured in Example 1 were treated with KA (400 μM), CA (60 μM) or GC (30 μM) as positive control groups or a composition containing PAC-2 at various concentrations. The culture medium was collected and centrifuged at 13,000 rpm for 15 minutes to remove any debris. The secreted adiponectin was measured using an adiponectin ELISA kit (Enzo Life Sciences, Farmingdale, N.Y., USA) according to the manufacturer's instructions.
# [2] = tested on: adiponectin (Adipoq) mRNA in hSCFs; experiment: mRNA expression of adiponectin by real-time quantitative PCR (RT-qPCR); conditions: compared with positive control groups KA 400 μM, CA 60 μM, GC 30 μM
# Protocol: Total RNA was extracted by treating the hSCFs cultured in Example 1 with a composition containing PAC-2 at various concentrations (μM) or KA (400 μM), CA (60 μM) and GC (30 μM) as positive control groups using a TRIzol reagent (Life Technologies, Carlsbad, Calif., USA) according to the manufacturer's instructions. 1 μg of total RNA was utilized to synthesize complementary DNAs (cDNAs) using the RevertAid first strand cDNA synthesis kit (Thermo Scientific, Pittsburgh, Pa., USA). About 1 μg of the cDNA sample and each TaqMan® probe (Life Technologies, Carlsbad, Calif., USA) were diluted in a reaction mixture of the Quantitect probe PCR kit (QIAGEN, Valencia, Calif., USA) and PCR was conducted using the 7500 fast real-time PCR system (Life Technologies, Carlsbad, Calif., USA). The TaqMan® probe was glyceraldehyde-3-phosphate dehydrogenase (GAPDH; Part #4352339E). All data were acquired from three independent experiments and are presented as fold changes relative to the GAPDH control group.
smiles,measurement,setting,value
"COc1cc(/C=C/C(=O)OCc2cc(=O)c(O)co2)cc(OC)c1OC [PAC-2, 3-(3,4,5-trimethoxyphenyl)-acrylic acid 5-hydroxy-4-oxo-4H-pyran-2-ylmethyl ester]",number of Oil Red O stained cells,hSCFs; 25 μM,remarkably increased number of stained cells
same,number of Oil Red O stained cells,hSCFs; 50 μM,remarkably increased number of stained cells
same,amount of the secreted adiponectin,[1]; 25 μM,≥ 3 times
same,amount of the secreted adiponectin,[1]; 50 μM,≥ 7 times
same,mRNA expression level of adiponectin,[2]; 25 μM,≥ 3 times
same,mRNA expression level of adiponectin,[2]; 50 μM,≥ 5 times
